The source of these data is patent US6861235B1, “Method for controlling target microorganism” (priority 1998, dated 2005).

Molecules are shown by their SMILES. Entries after “also recorded” stand apart in the source; their conditions may differ.

The subject of test [1] is total cell count in the soil. Description: Total cell count in soil inoculated with the NKR strain (DNB agar medium). The note with it: Example 3; SB soil pH 7.0; sucrose solution with M9 medium (N, P and C source) added on day 13. The format is cell-based.
Test [2] relates to NKR strain. Format: cell-based, Burkholderia sp. N16-1 strain. The note with it: Example 3; SB soil pH 7.0; sucrose solution with M9 medium added on day 13 after inoculation.
Test [3] has as its system NKR strain. The format is cell-based, Burkholderia sp. N16-1 strain. The following applies: Biolog GN plate; compounds in parentheses showed slight color development.

Consider `OC[C@H]1O[C@@](CO)(O[C@H]2O[C@H](CO)[C@@H](O)[C@H](O)[C@H]2O)[C@@H](O)[C@@H]1O` [sucrose], for which, in test [1], the “total cell counts in the soil” value is on record as “increases in the total cell counts were observed”. The “cell count of the NKR strain in the soil” value with NKR strain [2] is “transiently increased but then starts to decline; also recorded: after a transient increase, decreased slightly”. The “assimilation by the NKR strain (color development of an oxidation-reduction indicator)” value with NKR strain [3] was “does not assimilate; also recorded: no color development”.
